# Reference: patent publication US4876284A, “1-alkyl-2-aminotetralin derivatives” (Per Arvid Emil Carlsson, priority 1981, dated 1989)
# Experiments:
# [1] = test system: central DA-receptor (pre- and/or postsynaptic); test: Rat-brain in-vivo tyrosine hydroxylation: Dopa accumulation after NSD 1015 in reserpine-pretreated rats; details: reserpine-pretreated rats; for biochemical activity (Dopa accumulation), in words: inactive even at 45 μmol/kg
# Experimental: The compounds under evaluation were tested biochemically for central DA-receptor (pre- and/or postsynaptic) stimulating activity. The concept of this biochemical screening method is that a DA-receptor agonist will stimulate the receptor and through regulatory feedback systems effect a decline in tyrosine hydroxylase activity and thus a subsequent reduction in the synthesis rate for DA in the presynaptic neuron. Dopa formation, as determined after in-vivo inhibition of the aromatic L-amino acid decarboxylase with NSD 1015 (3-hydroxybenzyl-hydrazine hydrochloride), is taken as an indirect measure of DA synthesis rate.
# Rats (150-300 g) pretreated with reserpine were given the compounds under evaluation. Gross behavioural observations (changes in motility, stereotypies etc.) were made in order to evaluate possible postsynaptic dopamine receptor activity. subsequent administration of NSD 1015, decapitation, brain dissection [corpora striata, limbic fore-brain and rest of the hemispheral parts (cortex)]homogenization, centrifugation, ion-exchange chromatography and spectro-fluorimetric measurements (all as described in detail by Wikstrom et al., in J. Med. Chem. 21, 864-867, 1978 and references cited therein), gave the actual Dopa levels.
# Several doses (n=4-6) were tested in order to obtain dose-response curves for each compound and brain area. The dose of a compound producing a half-maximal decrease in the Dopa level in the rat brain part was then estimated. These values (ED50) are presented in Table I. (Simultaneous determination of the 5-HTP levels was also performed utilizing the same paradigm.)
# ^b Rats pretreated with reserpine (10 mg/kg i.p.; 18 h) were given th
# compounds under evaluation. Fortyfive minutes later they were injected
# with NSD 1015 (100 mg/kg i.p.) and after a further 30 min they were
# decapitated, the brains rapidly dissected and taken for determination of
# the Dopa and 5HTP levels in different areas of the brain. The dose of a
# compound producing a halfmaximal decrease (ED50) in the Dopa level i
# the rat brain part was then estimated from doseresponse curves comprising
# 4-6 dose levels. (For further details see the text and references).
# [2] = test system: postsynaptic DA receptors; test: Antagonism of the reserpine plus α-methyl-para-tyrosine-induced immobility (neuroleptic syndrome) in rats; motor activity
compound,measurement,setting,value
"CCCN(CCC)C1CCc2c(O)cccc2C1(C)C (stereo not shown) [1,1-di-CH35-OHDPAT, 1,1di-CH35-OH2-(di-n-propylamino) tetralin]","Dopa-accumulation; ED50, Limbic (class symbol)","[1]; limbic forebrain, s.c.",I (Inactive. ED50 > 45 μmol/kg.)
same,"biochemical activity (Dopa accumulation), in words",[1],completely inactive
same,"Dopa-accumulation; ED50, Striatum (class symbol)","[1]; striatum, s.c.",I (Inactive. ED50 > 45 μmol/kg.)
"CCCNC1CCc2c(O)cccc2C1(C)C (stereo not shown) [1,1-di-CH35-OHPAT, 1,1di-CH35-OH2-(n-propylamino)tetralin]","Dopa-accumulation; ED50, Limbic (class symbol)","[1]; limbic forebrain, s.c.",I (Inactive. ED50 > 45 μmol/kg.)
same,"biochemical activity (Dopa accumulation), in words",[1],completely inactive
same,"Dopa-accumulation; ED50, Striatum (class symbol)","[1]; striatum, s.c.",I (Inactive. ED50 > 45 μmol/kg.)
"CCCN1CCCC(c2cccc(O)c2)C1 (stereo not shown) [Compound 3-PPP, 3-(3-hydroxyphenyl)-N-n-propylpiperidine]","Dopa-accumulation; ED50, Limbic","[1]; limbic forebrain, half-maximal decrease in Dopa level, s.c.",3.6 μmol/kg s.c.
same,"Dopa-accumulation; ED50, Striatum","[1]; striatum, half-maximal decrease in Dopa level, s.c.",3.6 μmol/kg s.c.
same,Motor activity,"[2]; 10 mg/kg s.c., reserpine 10 mg/kg + α-methyl-para-tyrosine 250 mg/kg i.p., means ± s.e.m.",51 ± 19 counts 0-60 min
same,antagonism of the reserpine-induced syndrome / behaviour elicited,[2]; reserpine and α-methyl-para-tyrosine pretreated rats,inability of compound 2 to antagonize the reserpine-induced syndrome is shared by the selective Da-autoreceptor agonist 3-PPP
